Calls of active or inactive are those of the source. The rule behind the calls is not given here.

Assay [1] relates to Plasmodium berghei. In words: Down regulation of hypothetical protein (gi68067763) in Plasmodium berghei NK-65 infected in ICR mouse at 50 mg/kg, po administered 4 days post-infection measured after 18 hrs in the host blood by 2D-gel electrophoresis. It is filed as functional, organism-based. Details: dose 50 mg/kg.
Assay [2] concerns Plasmodium berghei. As to the kind of experiment: Down regulation of hypothetical protein (gi68064486) in Plasmodium berghei NK-65 infected in ICR mouse at 50 mg/kg, po administered 4 days post-infection measured after 18 hrs in the host blood by 2D-gel electrophoresis. Details: dose 50 mg/kg. The assay is classed as functional, organism-based.
The subject of assay [3] is Plasmodium berghei. In words: Down regulation of heat shock protein (gi68071723) in Plasmodium berghei NK-65 infected in ICR mouse at 50 mg/kg, po administered 4 days post-infection measured after 18 hrs in the host blood by 2D-gel electrophoresis. The assay is classed as functional, organism-based. Details: dose 50 mg/kg.
Assay [4] deals with Plasmodium berghei. In words: Down regulation of […] precursor in Plasmodium berghei NK-65 infected in ICR mouse at 50 mg/kg, po administered 4 days post-infection measured after 18 hrs in the host blood by 2D-gel electrophoresis. The assay is classed as functional, organism-based. Also on record: dose 50 mg/kg.
Assay [5] relates to Mus musculus. In words: Up regulation of unnamed protein product (gi74005074) in ICR mouse infected with Plasmodium berghei NK-65 at 50 mg/kg, po administered 4 days post-infection measured after 18 hrs in host blood by 2D-gel electrophoresis. It is filed as functional, organism-based. Also on record: dose 50 mg/kg.
Assay [6] concerns Plasmodium berghei. As to the kind of experiment: Down regulation of berghepain-2 in Plasmodium berghei NK-65 infected in ICR mouse at 50 mg/kg, po administered 4 days post-infection measured after 18 hrs in the host blood by 2D-gel electrophoresis. It is filed as functional, organism-based. Details: dose 50 mg/kg.
Assay [7] relates to Mus musculus. As to the kind of experiment: Up regulation of unnamed protein product (gi74220592) in ICR mouse infected with Plasmodium berghei NK-65 at 50 mg/kg, po administered 4 days post-infection measured after 18 hrs in host blood by 2D-gel electrophoresis. The assay is classed as functional, organism-based. Details: dose 50 mg/kg.
Assay [8] has as its system Mus musculus. In words: Down regulation of beta-actin in ICR mouse infected with Plasmodium berghei NK-65 at 50 mg/kg, po administered 4 days post-infection measured after 18 hrs in host blood by 2D-gel electrophoresis. It is filed as functional, organism-based. Also on record: dose 50 mg/kg.
Assay [9] concerns Plasmodium berghei. As to the kind of experiment: Antimalarial activity against Plasmodium berghei NK-65 infected in ICR mouse assessed as parasitemia at 50 mg/kg, po administered 4 days post-infection measured after 18 hrs (reference value: 30 to 40%). It is filed as functional.

As for `CCN(CC)c1ccc2nc3c4ccccc4/c(=N/c4ccncc4)cc-3oc2c1.Cl`, the result with Plasmodium berghei [1], with Plasmodium berghei [2], in the assay on Plasmodium berghei [3], in the assay with Plasmodium berghei [4], with Mus musculus [5] and with Plasmodium berghei [6] was Active. For the same molecule, the result with Mus musculus [7] and with Mus musculus [8] was Active. Also, the Activity in the assay on Plasmodium berghei [9] is listed as 20%.

The values are drawn from ChEMBL document CHEMBL1949560, “Plasmodium berghei proteome changes in response to SSJ-183 treatment” (2011).
